Marks after values point to notes of the source that are not given here.
Legend:
[1] = tested on: Solid Tumors; experiment: Clinical study of orally administered pazopanib in patients with solid tumors (clinical response); format: in vivo; design: key to Response: SD stable disease;; MR mixed response;; PR partial remission
Description: (§1) Sixty-three patients (pts) with cancer were treated with pazopanib three times a week, once (qd) or twice (bid) daily in a dose escalation scheme. The amount and frequency of administration of pazopanib to a representative number of those pts is summarized below in Table 1. Pts were evaluated monthly and treated until disease progression or intolerable side effects. Clinical response was determined every 8 wks. Safety and pharmacodynamics were separately assessed.
(§2) Preliminary representative patient data are shown below in Table 2.

[2] = Peak plasma concentration of pazopanib in the clinical study; format: in vivo; details: oral dosing, regardless of tumor type
Description: as §1, §2

[3] = patient with Adeno lung, 200-800 mg qd, oral
[4] = patient with Chondrosarcoma, 400-800 mg qd, oral
[5] = patient with Chondrosarcoma, 2000-800 mg qd, oral
[6] = patient with GIST, 600-800 mg qd, oral
[7] = patient with Hurthle Cell tumor, 50-800 mg qd, oral
[8] = patient with Leiomyosarcoma, 50-800 mg qd, oral
[9] = patient with Melanoma, 50-400 mg qd, oral
[10] = patient with Neuroendocrine tumor, 300 mg bid, oral
[11] = patient with Rectal carcinoid, 800 mg qd, oral
[12] = patient with Renal cell carcinoma, 800 mg qd, oral, patient withdrawn from study
[13] = patient with Renal cell carcinoma, 2000 mg qd, oral
[14] = patient with Renal cell carcinoma, 1400-800 mg qd, oral

## Cc1ccc(Nc2nccc(N(C)c3ccc4c(C)n(C)nc4c3)n2)cc1S(N)(=O)=O [pazopanib, 5-({4-[(2,3-dimethyl-2H-indazol-6-yl)(methyl)amino]pyrimidin-2-yl}amino)-2-methylbenzenesulfonamide]
[1]; [3]
  Duration on pazopanib (weeks): 55 weeks
  Response: SD
[1]; [4]
  Duration on pazopanib (weeks): 31 weeks
  Response: SD
[1]; [5]
  Duration on pazopanib (weeks): 90+ weeks
  Response: SD (MR)
[1]; [6]
  Duration on pazopanib (weeks): 60 weeks
  Response: SD
[1]; [7]
  Duration on pazopanib (weeks): 101 weeks
  Response: SD (MR)
[1]; [8]
  Duration on pazopanib (weeks): 34 weeks
  Response: SD
[1]; [9]
  Duration on pazopanib (weeks): 36 weeks
  Response: SD
[1]; [10]
  Duration on pazopanib (weeks): 50+ weeks
  Response: MR
[1]; patient with Neuroendocrine tumor, 1000 mg qd, oral
  Duration on pazopanib (weeks): 38 weeks
[1]; patient with Neuroendocrine tumor, 1000 mg qd, oral, preliminary data not yet confirmed
  Response: PR^#
[1]; [11]
  Duration on pazopanib (weeks): 40+ weeks
  Response: SD
[1]; patient with Renal cell carcinoma, 300 mg bid, oral (40+ weeks patient)
  Response: MR
[1]; patient with Renal cell carcinoma, 300 mg bid, oral (52+ weeks patient)
  Response: PR
[1]; patient with Renal cell carcinoma, 300 mg bid, oral, response MR
  Duration on pazopanib (weeks): 40+ weeks
[1]; patient with Renal cell carcinoma, 300 mg bid, oral, response PR
  Duration on pazopanib (weeks): 52+ weeks
[1]; patient with Renal cell carcinoma, 800 mg qd, oral (12+ weeks patient)
  Response: SD
[1]; [12]
  Duration on pazopanib (weeks): 19 weeks
  Response: SD (MR)*
[1]; patient with Renal cell carcinoma, 800 mg qd, oral, response SD
  Duration on pazopanib (weeks): 12+ weeks
[1]; [13]
  Duration on pazopanib (weeks): 24 weeks
  Response: SD (MR)
[1]; [14]
  Duration on pazopanib (weeks): 40 weeks
  Response: SD (MR)
[2]
  peak plasma concentrations of pazopanib in patients that demonstrated a clinical benefit: ≥ 40 µM
